SMILES strings stand for the structures.

Format in all cases: functional, cell-based
One assay concerns HCT-116. Nature of the assay: Cytotoxicity against human HCT-116 cells assessed as cell growth inhibition incubated for 72 hrs by CCK8 assay. The conditions noted are these: HCT-116, 72 h. Background: Formazan colour is commonly taken as a measure of viable cells.
A further assay has as its system HepG2. Nature of the assay: Cytotoxicity against human HepG2 cells assessed as cell growth inhibition incubated for 72 hrs by CCK8 assay. Conditions: HepG2, 72 h.
The next assay has as its system 4T1. Put plainly: Cytotoxicity against mouse 4T1 cells assessed as cell growth inhibition incubated for 72 hrs by CCK8 assay. Conditions: 4T1, 72 h.
The subject of the next assay is A549. Put plainly: Cytotoxicity against human A549 cells assessed as cell growth inhibition incubated for 72 hrs by CCK8 assay. Conditions: A549, 72 h.

By IC50 is commonly meant the concentration at which inhibition is half-maximal. With `COc1cccc2c1C(=O)c1c(O)c3c(c(O)c1C2=O)C[C@@](O)(C(=O)CO)C[C@@H]3O[C@H]1C[C@H](N)[C@H](O)[C@H](C)O1` [DOXORUBICIN], the concentration for half-maximal inhibition (IC50) in the assay on HCT-116 was 0.08 µM; with HepG2, 0.13 µM; in the assay with 4T1, 0.09 µM.

Consider `CC(O)c1cccc2c1C(=O)C(N)=C(C(N)=O)C2=O` (stereo unspecified), for which the IC50 in the assay on A549 came to 0.9 µM; in the assay on HCT-116, 2.1 µM; in the assay with HepG2 it was 1.9 µM; with 4T1, 1.3 µM.

Turning to `C[C@H]1O[C@@H]2C[C@@H](O)[C@@]1(O)c1c2c(O)c(C(N)=O)c2ncoc12`, the IC50 with A549 was 7.2 µM; in the assay with HCT-116, 6.8 µM; in the assay on HepG2, 12.4 µM; in the assay with 4T1, 5.7 µM.

Consider `NC(=O)C1=C(N)C(=O)c2c(O)cccc2C1=O`, for which the IC50 was 8.4 µM with A549, 11.6 µM in the assay with HCT-116, 8.9 µM in the assay with HepG2 and 14.7 µM in the assay on 4T1.

In the case of `C[C@H]1O[C@@H]2C[C@@H](O)[C@@]1(O)c1c2c(O)c(C(N)=O)c2nc([C@@H](O)[C@@H](O)CO)oc12`, the half-maximal inhibitory concentration (IC50) in the assay with A549 is 4.8 µM; with HCT-116, 4.4 µM; in the assay on HepG2 it was 5.6 µM; with 4T1 it was 4.3 µM.

Take `C[C@H]1O[C@@H]2C[C@@H](O)[C@@]1(O)c1c2c(O)c(C(N)=O)c2nc([C@@H](O)CO)oc12`: the IC50 worked out at 6.4 µM in the assay on A549, 5.6 µM with HCT-116, 8.9 µM in the assay on HepG2 and 4.8 µM with 4T1.

`CC(=O)c1cccc2c1C(=O)C(N)=C(C(N)=O)C2=O`: the 50% inhibitory concentration (IC50) came out at 13.5 µM in the assay with A549, 14.8 µM in the assay on HCT-116, 6.3 µM with HepG2 and 7.6 µM in the assay on 4T1.

`C[C@H]1O[C@@H]2C[C@@H](O)[C@@]1(O)C1=C2C(=O)C(C(N)=O)=C(N)C1=O`: the IC50 in the assay on A549 was 1.4 µM; in the assay with HCT-116, 0.7 µM; in the assay with HepG2, 1.2 µM; with 4T1 it was 0.9 µM.

The values are drawn from ChEMBL document CHEMBL5120770, “Sarubicinols A-C, Cytotoxic Benzoxazoles from a Streptomyces” (J Nat Prod, 2022).
